Reference: article PMC5826917, “A small molecule inhibitor of Nicotinamide N-methyltransferase for the treatment of metabolic disorders” (Scientific Reports, 2018)

Experiments:
monkey NNMT (mkNNMT) = target: T1, monkey NNMT (mkNNMT) (Macaca mulatta, UniProt F7ERX8); assay: Fluorescence based NNMT enzymatic assay (monkey); conditions: fluorescence based biochemical assay
T1 construct: made in house
Procedure: NNMT activity was measured with the fluorescence enzymatic assay[22],[23]. MNA formed in the NNMT reaction reacts with acetophenone in the presence of KOH and formic acid and forms a fluorescent product 2, 7- naphthyridine. JBSNF-000088 was screened using human, mouse and monkey NNMT enzymes. Different concentrations of inhibitors were preincubated along with the enzyme for 30 minutes at room temperature. Reaction was initiated by addition of SAM and nicotinamide mixture (7 µM, 20 µM, 8 µM SAM and 6 µM, 20 µM, 9 µM nicotinamide for human, mouse and monkey NNMT assays respectively) for 60 minutes at 37 °C. The final assay reaction mixture contained a buffer of 100 mM Tris Hcl pH 7.5, 0.04% BSA, 2 mM dithiothreitol and 1% DMSO. At the end of the incubation, the reaction was stopped by the addition of ethanol: acetophenone mix (75% ethanol: 25% acetophenone) and 5 M potassium hydroxide prepared with 50% ethanol. The reaction was incubated for 15 minutes following which 100 µL of 60% formic acid was added. […] The fluorescent product 2, 7- naphthyridine was measured using a Tecan reader with excitation at 375 nm and emission at 430 nm. The IC50 values were determined by fitting the inhibition curves (percent inhibition versus inhibitor concentration) using a four parametric sigmoidal dose response using GraphPad Prism software.

[1] = system: endogenous NNMT activity in differentiated 3T3L1 cells; assay: Cell based 3T3L1 assay (MNA levels by LC-MS/MS); design: species or system mouse
Procedure: (§1) PE-Sciex API-4000 triple quadrupole (PerkinElmerSciex Instruments, Boston, MA) mass spectrometer was employed for this analysis. […] Detection of the ions was performed in the multiple reaction monitoring (MRM) mode, monitoring the transition of the m/z 137 precursor ion to the m/z 92 product ion for MNA and m/z 141 precursor ion to the m/z 84 product ion for d4-MNA (internal standard).
(§2) The supernatant was separated and transferred to pre-labeled HPLC vials and analyzed by LC-MS/MS system.

human NNMT = assay: Thermal shift assay, human NNMT; format: binding; conditions: in presence of SAM, molar ratio enzyme:SAM:compound ~1:5:10
Procedure: Thermal shift assay experiments were carried out as described previously.

[2] = target: Adrenoreceptor beta 1 (ADRB1) (Homo sapiens, UniProt P08588); assay: Selectivity panel: ADRB1; format: cell-based
Adrenoreceptor beta 1 (ADRB1), sequence (P08588 whole entry): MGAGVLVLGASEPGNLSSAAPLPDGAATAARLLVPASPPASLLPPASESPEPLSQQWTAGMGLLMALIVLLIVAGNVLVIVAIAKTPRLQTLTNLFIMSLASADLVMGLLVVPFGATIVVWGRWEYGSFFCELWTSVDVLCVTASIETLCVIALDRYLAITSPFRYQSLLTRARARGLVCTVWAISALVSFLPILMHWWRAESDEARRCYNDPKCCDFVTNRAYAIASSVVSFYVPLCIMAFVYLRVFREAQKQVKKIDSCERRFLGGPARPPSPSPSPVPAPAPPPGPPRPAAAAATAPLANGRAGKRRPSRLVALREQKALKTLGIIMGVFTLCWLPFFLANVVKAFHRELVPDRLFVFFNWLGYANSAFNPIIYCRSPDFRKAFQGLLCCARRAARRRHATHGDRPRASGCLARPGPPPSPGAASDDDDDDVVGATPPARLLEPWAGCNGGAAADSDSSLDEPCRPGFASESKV

[3] = system: Ca2+ Channel (L-Type DHP Site); assay: Selectivity panel: Ca2+ channel; format: binding; conditions: 10 µM
[4] = target: Cannabinoid Receptor 1 (CB1) (Homo sapiens, UniProt P21554); assay: Selectivity panel: CB1; format: cell-based
Cannabinoid Receptor 1 (CB1), sequence (P21554 whole entry): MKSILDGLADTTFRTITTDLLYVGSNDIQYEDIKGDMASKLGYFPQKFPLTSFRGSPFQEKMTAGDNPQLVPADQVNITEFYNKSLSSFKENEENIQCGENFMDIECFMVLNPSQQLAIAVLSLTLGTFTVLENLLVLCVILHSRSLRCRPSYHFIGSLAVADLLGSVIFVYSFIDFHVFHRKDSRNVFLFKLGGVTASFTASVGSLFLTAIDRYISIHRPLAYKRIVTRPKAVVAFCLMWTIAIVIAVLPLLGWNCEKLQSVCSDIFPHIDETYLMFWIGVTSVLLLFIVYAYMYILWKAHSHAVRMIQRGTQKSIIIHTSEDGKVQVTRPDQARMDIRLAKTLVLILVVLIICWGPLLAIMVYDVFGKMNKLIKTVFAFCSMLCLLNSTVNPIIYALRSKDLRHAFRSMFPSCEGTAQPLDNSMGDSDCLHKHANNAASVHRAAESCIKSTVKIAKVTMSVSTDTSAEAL
Procedure: (§3) Supplement 41598_2018_22081_MOESM1_ESM.docx, table 2: Supplementary table 2: Selectivity profile of JBSNF-000088 (at 10 µM) vs a panel of 34 receptors, channels and enzymes. | column: E% (agonistic); I% (antagonistic or inhibitory)

Dopamine Receptor 1 (D1) = Dopamine Receptor 1 (D1) (Homo sapiens, UniProt P21728); assay: Selectivity panel: D1; format: cell-based
Dopamine Receptor 1 (D1), sequence (P21728 whole entry): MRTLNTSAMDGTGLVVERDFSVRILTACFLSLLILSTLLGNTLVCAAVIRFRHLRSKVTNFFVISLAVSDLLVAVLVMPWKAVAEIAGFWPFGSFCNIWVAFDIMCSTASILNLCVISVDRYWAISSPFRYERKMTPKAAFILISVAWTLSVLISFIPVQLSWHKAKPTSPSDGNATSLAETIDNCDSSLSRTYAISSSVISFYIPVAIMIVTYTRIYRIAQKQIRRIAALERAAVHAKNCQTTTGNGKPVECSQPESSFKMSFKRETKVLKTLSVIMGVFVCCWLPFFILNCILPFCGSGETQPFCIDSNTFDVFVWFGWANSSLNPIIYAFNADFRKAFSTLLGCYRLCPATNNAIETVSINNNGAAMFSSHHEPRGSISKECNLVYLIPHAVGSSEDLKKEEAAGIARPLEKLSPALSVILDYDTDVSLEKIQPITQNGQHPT
Procedure: as §3

Dopamine Transporter = Dopamine Transporter (Homo sapiens, UniProt Q01959); assay: Selectivity panel: dopamine transporter; format: binding; conditions: read-out: I% (antagonistic or inhibitory), Dopamine Transporter
Procedure: (§4) Supplement 41598_2018_22081_MOESM1_ESM.docx, table 2: Supplementary table 2: Selectivity profile of JBSNF-000088 (at 10 µM) vs a panel of 34 receptors, channels and enzymes. | column: I% (antagonistic or inhibitory)

Niacin receptor (NAR1) = Niacin receptor (NAR1) (Homo sapiens, UniProt Q8TDS4); assay: Selectivity panel: NAR1; format: cell-based; conditions: 10 µM
Niacin receptor (NAR1), sequence (Q8TDS4 whole entry): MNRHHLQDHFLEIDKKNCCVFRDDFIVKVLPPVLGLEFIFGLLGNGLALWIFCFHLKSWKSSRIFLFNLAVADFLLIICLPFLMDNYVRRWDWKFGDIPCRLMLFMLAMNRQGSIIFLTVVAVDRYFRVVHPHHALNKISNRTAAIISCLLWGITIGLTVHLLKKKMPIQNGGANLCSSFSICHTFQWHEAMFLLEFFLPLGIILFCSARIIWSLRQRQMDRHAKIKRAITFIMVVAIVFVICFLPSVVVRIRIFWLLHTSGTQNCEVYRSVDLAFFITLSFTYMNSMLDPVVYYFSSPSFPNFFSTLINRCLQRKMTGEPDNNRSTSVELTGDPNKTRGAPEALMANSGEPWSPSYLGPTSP

[5] = target: Nicotinic AChR alpha4 beta2 (nAChRa4b2) (Homo sapiens, UniProt P17787+P43681); assay: Selectivity panel: nAChRa4b2; format: binding; conditions: read-out: I% (antagonistic or inhibitory), nAChRa4b2
Nicotinic AChR alpha4 beta2 (nAChRa4b2), sequence (P43681 29-627 limits assumed): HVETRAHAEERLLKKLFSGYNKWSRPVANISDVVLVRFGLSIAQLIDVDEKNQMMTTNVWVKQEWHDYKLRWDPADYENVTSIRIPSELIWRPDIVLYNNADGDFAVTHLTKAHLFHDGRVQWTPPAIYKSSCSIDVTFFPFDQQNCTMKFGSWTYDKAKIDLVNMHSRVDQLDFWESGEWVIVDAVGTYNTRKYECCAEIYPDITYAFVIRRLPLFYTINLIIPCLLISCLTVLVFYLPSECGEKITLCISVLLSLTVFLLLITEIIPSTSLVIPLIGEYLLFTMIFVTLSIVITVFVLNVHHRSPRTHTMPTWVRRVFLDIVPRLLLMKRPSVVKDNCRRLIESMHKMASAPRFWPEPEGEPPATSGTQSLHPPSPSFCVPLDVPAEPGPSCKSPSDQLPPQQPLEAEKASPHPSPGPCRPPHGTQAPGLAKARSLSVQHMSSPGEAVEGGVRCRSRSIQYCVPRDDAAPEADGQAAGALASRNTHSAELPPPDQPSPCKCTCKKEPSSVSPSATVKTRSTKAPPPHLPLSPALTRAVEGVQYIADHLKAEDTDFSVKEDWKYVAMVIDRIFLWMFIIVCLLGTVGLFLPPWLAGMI
Nicotinic AChR alpha4 beta2 (nAChRa4b2), sequence (P17787 26-502): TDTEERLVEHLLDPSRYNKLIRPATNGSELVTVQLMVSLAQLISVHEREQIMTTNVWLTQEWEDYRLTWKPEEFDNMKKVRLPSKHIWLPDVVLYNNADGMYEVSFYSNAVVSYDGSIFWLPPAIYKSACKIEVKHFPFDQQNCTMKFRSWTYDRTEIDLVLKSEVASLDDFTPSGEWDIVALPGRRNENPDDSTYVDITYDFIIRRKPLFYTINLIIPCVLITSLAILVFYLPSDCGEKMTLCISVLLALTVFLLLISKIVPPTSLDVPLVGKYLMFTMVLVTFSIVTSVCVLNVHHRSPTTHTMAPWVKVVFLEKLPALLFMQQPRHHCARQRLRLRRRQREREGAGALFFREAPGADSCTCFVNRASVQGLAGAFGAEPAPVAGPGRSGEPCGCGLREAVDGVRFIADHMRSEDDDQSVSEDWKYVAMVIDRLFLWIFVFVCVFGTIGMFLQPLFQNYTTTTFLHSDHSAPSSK
Procedure: as §4

[6] = system: Nicotinic AChR Receptor Muscle-Type; assay: Selectivity panel: nAChR muscle-type; format: binding; conditions: 10 µM
[7] = target: Norepinephrin (Noradrenalin) Transporter (Homo sapiens, UniProt P23975); assay: Selectivity panel: norepinephrine transporter; format: binding; conditions: read-out: I% (antagonistic or inhibitory), Norepinephrin (Noradrenalin) Transporter
Norepinephrin (Noradrenalin) Transporter, sequence (P23975 whole entry): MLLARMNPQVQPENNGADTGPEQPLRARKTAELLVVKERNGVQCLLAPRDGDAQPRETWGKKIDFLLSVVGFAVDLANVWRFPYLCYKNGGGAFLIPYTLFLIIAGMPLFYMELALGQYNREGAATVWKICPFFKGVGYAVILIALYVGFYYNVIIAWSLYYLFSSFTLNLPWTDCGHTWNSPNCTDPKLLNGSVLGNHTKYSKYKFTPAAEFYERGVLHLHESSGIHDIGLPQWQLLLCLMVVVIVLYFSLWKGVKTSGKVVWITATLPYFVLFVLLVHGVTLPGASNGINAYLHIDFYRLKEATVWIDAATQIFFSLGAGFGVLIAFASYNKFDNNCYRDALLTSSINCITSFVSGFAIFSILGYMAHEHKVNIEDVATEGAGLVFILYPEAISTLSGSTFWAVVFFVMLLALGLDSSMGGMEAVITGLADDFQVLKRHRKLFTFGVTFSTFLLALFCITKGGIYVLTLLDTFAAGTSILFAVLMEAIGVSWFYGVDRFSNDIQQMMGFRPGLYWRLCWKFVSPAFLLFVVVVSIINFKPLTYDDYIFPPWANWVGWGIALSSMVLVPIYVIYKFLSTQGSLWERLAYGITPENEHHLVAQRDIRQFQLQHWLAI
Procedure: as §4

[8] = target: Opioid Receptor mu (OPRM1) (Homo sapiens, UniProt P35372); assay: Selectivity panel: OPRM1; format: cell-based
Opioid Receptor mu (OPRM1), sequence (P35372 whole entry): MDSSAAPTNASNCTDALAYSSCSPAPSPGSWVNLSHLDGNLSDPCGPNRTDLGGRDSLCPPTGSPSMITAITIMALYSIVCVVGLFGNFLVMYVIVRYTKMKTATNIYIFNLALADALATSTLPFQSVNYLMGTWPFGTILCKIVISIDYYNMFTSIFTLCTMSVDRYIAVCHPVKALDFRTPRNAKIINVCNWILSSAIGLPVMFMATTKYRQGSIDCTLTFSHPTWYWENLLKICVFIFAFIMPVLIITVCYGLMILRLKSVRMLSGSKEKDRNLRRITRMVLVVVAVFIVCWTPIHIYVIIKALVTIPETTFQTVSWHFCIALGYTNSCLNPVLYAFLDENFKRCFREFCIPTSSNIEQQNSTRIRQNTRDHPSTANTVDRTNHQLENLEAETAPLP
Procedure: as §3

[9] = target: Serotonin Receptor 1A (5HT1A) (Homo sapiens, UniProt P08908); assay: Selectivity panel: 5HT1A; format: cell-based
Serotonin Receptor 1A (5HT1A), sequence (P08908 whole entry): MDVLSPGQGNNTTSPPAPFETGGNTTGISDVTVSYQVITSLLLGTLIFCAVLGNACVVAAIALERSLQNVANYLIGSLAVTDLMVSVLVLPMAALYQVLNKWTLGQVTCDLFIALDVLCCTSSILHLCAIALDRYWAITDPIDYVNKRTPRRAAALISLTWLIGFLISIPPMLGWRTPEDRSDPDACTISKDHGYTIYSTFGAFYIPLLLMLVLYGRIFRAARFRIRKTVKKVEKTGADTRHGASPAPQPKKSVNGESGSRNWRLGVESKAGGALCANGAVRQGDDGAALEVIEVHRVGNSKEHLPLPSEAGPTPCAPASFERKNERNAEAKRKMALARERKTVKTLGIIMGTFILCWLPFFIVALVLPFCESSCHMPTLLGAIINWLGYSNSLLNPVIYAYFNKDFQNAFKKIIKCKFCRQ
Procedure: as §3

SK+Ca channel- = assay: Selectivity panel: SK+Ca channel; format: binding; conditions: 10 µM
cytochrome P450 enzymes = conditions: 20 µM
[10] = 0.5 h
physchem = conditions: aqueous buffer
in vitro = conditions: human, Caco-2
NNMT = target: T2, NNMT (Homo sapiens, UniProt P40261); assay: biochemical; design: The full length NNMT proteins (1–264 amino acids) of human & mouse; 6 × His tag (N); TEV cleavage site (ENLYFQG) (N); made in house; host or cells: E. coli Rosetta2(DE3)pLysS
T2 sequence (P40261 1-264): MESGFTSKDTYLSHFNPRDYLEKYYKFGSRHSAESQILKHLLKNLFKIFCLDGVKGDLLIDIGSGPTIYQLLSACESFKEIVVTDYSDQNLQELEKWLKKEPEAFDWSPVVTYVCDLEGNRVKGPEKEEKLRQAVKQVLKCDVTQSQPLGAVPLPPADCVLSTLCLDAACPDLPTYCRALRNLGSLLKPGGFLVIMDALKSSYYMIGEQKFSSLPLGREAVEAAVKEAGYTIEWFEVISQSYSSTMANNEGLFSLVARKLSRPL
Procedure: as §1, §2
The final assay reaction mixture contained a buffer of 100 mM Tris Hcl pH 7.5, 0.04% BSA, 2 mM dithiothreitol and 1% DMSO.

T1 sequence (F7ERX8 1-264): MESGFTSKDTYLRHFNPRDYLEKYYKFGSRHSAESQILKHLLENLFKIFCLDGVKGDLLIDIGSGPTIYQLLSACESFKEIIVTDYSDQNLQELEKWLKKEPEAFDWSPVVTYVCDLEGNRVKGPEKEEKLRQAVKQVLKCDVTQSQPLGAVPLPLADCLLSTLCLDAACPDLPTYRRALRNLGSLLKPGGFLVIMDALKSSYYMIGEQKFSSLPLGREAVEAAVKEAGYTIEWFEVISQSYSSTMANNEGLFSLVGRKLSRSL

What does the source list for `COc1ccc(C(N)=O)cn1` [JBSNF-000088, 6-methoxynicotinamide]?
IC50 (monkey NNMT (mkNNMT)): 2800 nM; IC50 ([1]; Mus musculus, 3T3-L1, 24 h treatment, MNA by LC-MS/MS): 6300 nM; right shift in potency, 3T3L1 cells compared to U2OS cells ([1]; ratio of cellular IC50 values): approximately 4 fold; shift in melting temperature (Tm), human NNMT (human NNMT): 5 K; E% (agonistic), ADRB1 ([2]; 10 µM): 3%; inhibition at 10 µM ([2]; read-out: I% (antagonistic or inhibitory), ADRB1): -33%; I% (antagonistic or inhibitory), Ca2+ Channel (L-Type DHP Site) [3]: 0%; E% (agonistic), CB1 ([4]; 10 µM): 0%; inhibition at 10 µM ([4]; read-out: I% (antagonistic or inhibitory), CB1): 1%; E% (agonistic), D1 (Dopamine Receptor 1 (D1); 10 µM): 0%; inhibition at 10 µM (Dopamine Receptor 1 (D1); read-out: I% (antagonistic or inhibitory), D1): -3%; inhibition at 10 µM (Dopamine Transporter): 7%; E% (agonistic), NAR1 (Niacin receptor (NAR1)): -3%; inhibition at 10 µM [5]: 5%; I% (antagonistic or inhibitory), Nicotinic AChR Receptor Muscle-Type [6]: -2%; inhibition at 10 µM [7]: 9%; E% (agonistic), OPRM1 ([8]; 10 µM): -1%; inhibition at 10 µM ([8]; OPRM1, read-out: I% (antagonistic or inhibitory), OPRM1): -8%; E% (agonistic), 5HT1A ([9]; 10 µM): 5%; inhibition at 10 µM ([9]; read-out: I% (antagonistic or inhibitory), 5HT1A): -13%; I% (antagonistic or inhibitory), SK+Ca channel (SK+Ca channel-): -4%; Cyp Inhibition (cytochrome P450 enzymes): >20 µM; Metabolic stability mouse microsomes (% remaining) [10]: 79%; solubility (physchem): > 200 µM; Papp (in vitro): 25.2 ×10⁻⁶ cm/s; efflux ratio (in vitro): 1.04; IC50 (NNMT): 2400 nM
